From patent US20110045100A1, “Antimalarial Quinolines and Methods of Use Thereof” (GEORGETOWN UNIVERSITY, priority 2008, published 2011)
Like-named read-outs stand apart in the source and are kept apart here. Each block holds one compound with its values, some of them ahead of it.

Key:
monomeric heme = assay: Heme affinity measurement, monomeric heme; type: binding; conditions: acidic 40% DMSO
Protocol: To test whether binding to Hz precursors is also altered for the 4S and 4O derivatives, binding constants were measured as previously described for both μ-oxo dimeric and monomeric heme (FIG. 25). […] J. Am. Chem. Soc. 1988, 110, 4391-4395; Egan, T. J.; Mavuso, W. W.; Ross, D. C.; Marques, H. M. Thermodynamic factors controlling the interaction of quinoline antimalarial drugs with ferriprotoporphyrin IX. J. Inorg. Biochem. 1997, 68, 137-145; and Egan, T. J.; Ncokazi, K. K. Effects of solvent composition and ionic strength on the interaction of quinoline antimalarials with ferriprotoporphyrin IX. J. Inorg. Biochem. 2004, 98, 144-152. Due to the instability of monomeric heme in aqueous solution, the affinity to monomer measured by conventional absorbance experiments can only be estimated using 40% DMSO in water as solvent. Egan, T. J.; Ncokazi, K. K. Effects of solvent composition and ionic strength on the interaction of quinoline antimalarials with ferriprotoporphyrin IX. J. Inorg. Biochem. 2004, 98, 144-152. At appropriately acidic solution pH (≦5.0) FPIX heme is primarily monomeric, whereas at pH 7, appreciable dimer is formed. As shown (FIG. 25), CQ and compounds 88, 93, and 98 all have poor affinity for monomeric heme in acidic 40% DMSO. To further test if CQ interacts with monomeric heme, T1 measurements of the CQ protons were made with samples containing 10 mM CQ and 2 mM hemin chloride in 40% DMSO at pH 5.0. Although the lines are broadened in this solution due to paramagnetic susceptibility, the measured T1's indicate only weak paramagnetic relaxation. For example, the measured T1 for CQ proton 1 in this sample is 0.70 s, whereas at pH 7.0 the T1 for the same proton is 0.039 s.
To measure affinity for monomeric heme, 1.2 mM stock solutions of hemin (sodium salt from Sigma-Aldrich) were prepared in DMSO and stored as […] aliquots. 4.8 μM working solutions were prepared in 40% DMSO/phosphate buffer (fresh stocks prepared daily). Stock solutions of CQ and CQ analogues (diphosphate or dihydrochloride salts) were prepared in 40% DMSO/phosphate buffer and used for the titration experiments (all drugs dilutions were prepared in the same buffer).
1.5 mL cuvettes containing freshly prepared samples of 4.8 μM heme were titrated with increasing concentrations (0-50 μM) of drug. Following each addition, the sample was mixed and heme absorbance then recorded at 402 nm. Control experiments were performed by titrating 4.8 μM heme with similar volumes of solvent and no drug present. […] The absorbance peak analysis was done using Microsoft excel and Ka were extracted from the ΔAbs402 plots via Scatchard analysis using Microsoft Excel and Sigma plot 9.0.1 software.

μ-oxo dimeric heme = assay: Heme affinity measurement, μ-oxo dimeric heme; type: binding; conditions: aqueous solution
Protocol: 1.5 mL cuvettes containing freshly prepared samples of 4.8 μM heme were titrated with increasing concentrations (0-50 μM) of drug. Following each addition, the sample was mixed and heme absorbance then recorded at 402 nm. Control experiments were performed by titrating 4.8 μM heme with similar volumes of solvent and no drug present. To measure affinity for μ-oxo dimeric heme, the procedure was similar except hemin was first converted to dimeric form in mild alkaline solution, followed by titration to pH 7.5 using Hepes buffer. The absorbance peak analysis was done using Microsoft excel and Ka were extracted from the ΔAbs402 plots via Scatchard analysis using Microsoft Excel and Sigma plot 9.0.1 software.

[1] = system: HB3 (chloroquine sensitive strain of P. falciparum); assay: SYBR Green I antiplasmodial assay, strain HB3; type: cell-based, Plasmodium falciparum; conditions: CQS strain HB3; read-out: IC50 against HB3
Source text: Bennett T. N.; Paguio, M.; Gligorijevic, B.; Seudieu, C.; Kosar, A. D.; Davidson, E.; Roepe, P. D. Novel, rapid, and inexpensive cell-based quantification of antimalarial drug efficacy. Antimicrob. Agents Chemother. 2004, 48, 1807-1810; Smilkstein, M.; Sriwilaijaroen, N.; Kelly, J. X.; Wilairat, P.; Riscoe, M. Simple and inexpensive fluorescence-based technique for high-throughput antimalarial drug screening. Antimicrob. Agents Chemother. 2004, 48, 1803-1806; and Johnson, J. D.; Dennull, R. A.; Gerena, L.; Lopez-Sanchez, M.; Roncal, N. E.; Waters, N.C. Assessment and continued validation of the malaria SYBR green I-based fluorescence assay for use in malaria drug screening. Antimicrob. Agents Chemother. 2007, 51, 1926-1933. […] The selectivity index provides a quantitative measure of the antimalarial activity against CQR strains relative to that against sensitive strains and thus indicates promising drug discovery leads. […]
The antiplasmodial activity of these compounds was measured versus a CQS (HB3) and a CQR (Dd2) strain using a standardized, inexpensive assay based on SYBR Green I intercalation. […]
Drug activities were assessed and IC50 were quantified essentially as described previously. […] Fluorescence was measured at 530 nm (490 nm excitation) using a spectra geminiEM plate reader. […]

[2] = system: Dd2 (chloroquine resistant strain of P. falciparum); assay: SYBR Green I antiplasmodial assay, strain Dd2; type: cell-based, Plasmodium falciparum
Source text: (§1) Bennett T. N.; Paguio, M.; Gligorijevic, B.; Seudieu, C.; Kosar, A. D.; Davidson, E.; Roepe, P. D. Novel, rapid, and inexpensive cell-based quantification of antimalarial drug efficacy. Antimicrob. Agents Chemother. 2004, 48, 1807-1810; Smilkstein, M.; Sriwilaijaroen, N.; Kelly, J. X.; Wilairat, P.; Riscoe, M. Simple and inexpensive fluorescence-based technique for high-throughput antimalarial drug screening. Antimicrob. Agents Chemother. 2004, 48, 1803-1806; and Johnson, J. D.; Dennull, R. A.; Gerena, L.; Lopez-Sanchez, M.; Roncal, N. E.; Waters, N.C. Assessment and continued validation of the malaria SYBR green I-based fluorescence assay for use in malaria drug screening. Antimicrob. Agents Chemother. 2007, 51, 1926-1933. […] Drake, N. L.; Creech, H. J.; Garman, J. A.; Haywood, S. T.; Peck, R. M.; van Hook, J. O.; Walton, E. Synthetic antimalrials. The preparation of certain 4-aminoquinolines. J. Am. Chem. Soc. […] Trans. R. Soc. Trop. Med. Hyg. […] J. Parasitol. 1983, 69, 97-105. The selectivity index provides a quantitative measure of the antimalarial activity against CQR strains relative to that against sensitive strains and thus indicates promising drug discovery leads. […] This can be combined with the introduction of a third basic amino function which should further favor accumulation of the drug within the acidic food vacuole of the parasite.
The antiplasmodial activity of these compounds was measured versus a CQS (HB3) and a CQR (Dd2) strain using a standardized, inexpensive assay based on SYBR Green I intercalation. Bennett T. N.; Paguio, M.; Gligorijevic, B.; Seudieu, C.; Kosar, A. D.; Davidson, E.; Roepe, P. D. Antimicrob. Agents Chemother. 2004, 48, 1807-1810; Smilkstein, M.; Sriwilaijaroen, N.; Kelly, J. X.; Wilairat, P.; Riscoe, M. Antimicrob. Agents Chemother. 2004, 48, 1803-1806; and Johnson, J. D.; Dennull, R. A.; Gerena, L.; Lopez-Sanchez, M.; Roncal, N. E.; Waters, N.C. Antimicrob. Agents Chemother. 2007, 51, 1926-1933. […] De, D.; Krogstad, F. M.; Cogswell, F. B.; Krogstad, D. J. Am. J. Trop. Med. Hyg. 1996, 55, 579-583. […] The basic tertiary amino function in the side chain is commonly believed to be crucial for the accumulation of the drug within the acidic food DV.
(§2) Drug activities were assessed and IC50 were quantified essentially as described previously. Delarue, S.; Girault, S.; Maes, L.; Debreu-Fontaine, M. A.; Labaeid, M.; Grellier, P.; Sergheraert, C. Synthesis and in vitro and in vivo antimalarial activity of new 4-anilinoquinolines. J. Med. Chem. 2001, 44, 2827-2833; and O'Neill, P. M.; Willock, D. J.; Hawley, S. R.; Bray, P. G.; Storr, R. C.; Ward, S. A.; Park, B. K. Synthesis, antimalarial activity, and molecular modeling of tebuquine analogues. J. Med. Chem. 1997, 40, 437-448. The aminoquinolines were diluted using complete media under sterile conditions and plated in a 96 well plate format. Sorbitol synchronized cultures were utilized with >95% of the parasites at the ring stage. Cultures were diluted to give a working stock of 0.5% parasitemia and 2% hematocrit (final hematocrit 1% & 0.5% Parasitemia). The plates were incubated for 72 h at 37° C. After 72 h, 50 μL of 10×SYBR green I dye was added to each well, and the plate was incubated for 1 h at 37° C. Fluorescence was measured at 530 nm (490 nm excitation) using a spectra geminiEM plate reader. Data analysis was performed using sigma plot 9.0 software after downloading data in Excel format.

hemozoin (Hz) formation = assay: Quantification of in vitro Hz formation inhibition; type: biochemical
Protocol: A stock solution of 5 mM hemin (Fluka) in 0.1M NaOH was prepared and stored as small aliquots at -20° C. Fresh aliquots were thawed daily to room temperature before use. Lecithin stock solutions were prepared by dissolving in distilled water to 10 mg/ml and similarly stored. 0.5 M propionate was used to buffer experiments in the pH range 5.2-5.6. The assay mixture (1 mL volumes) contained: 200 μL lecithin solution ([…] final) 20 μL hematin (100 μM final concentration) 20 μ[…] propionate buffer (X) μL drug (dependant on the concentration required 0-1000 μM). The addition sequence involved first adding the lecithin followed by heme, HCl, propionate buffer and finally the drug. Each sample was prepared in triplicate. Following addition of the reagents the samples were incubated at 37° C. with constant shaking for 18 h. After 18 h the assay was stopped by spinning the samples at 13,200 rpm for 10 minutes followed by carefully aspirating off the supernatant. The pellet was then resuspended in 50 mM bicarbonate buffer pH 9.0 (1 mL) and gently shaken at room temperature for 30 minutes to dissolve uncrystallized heme. The samples were then centrifuged as above and the supernatant removed. […] The samples were then dissolved in 0.1M NaOH to solubilize β-hematin to free heme and β-hematin formed was then quantified via heme absorbance at 402 nm. Calibration curves were prepared by titrating increasing amounts of heme in the same solvent vs. absorbance at 402 nm.

[3] = pKa determination by acid/base titration; type: physicochemical; conditions: distilled water; measured; read-out: quinolyl N pKa
Protocol: SPARC pKa calculator is an online tool developed at the University of Georgia by S. W. Karickhoff, L. A. Carreira and S. H. Hilal. Experimental pKa were determined using an Accumet AB15 pH meter and a calomel electrode. 10 mM solutions of the drugs (as dibasic salts) were made in distilled H2O and titrated at room temperature (23.0±2.0° C.) using 0.1 M NaOH. Titration plots were generated and pKa's extracted via inflection points from the second derivative plots; (Δ^2pH/ΔV^2) vs. V, where V represents the volume of the titrant added and ΔV is the volume increment.

[4] = system: FCB (CQR strain of P. falciparum); assay: SYBR Green I antiplasmodial assay, strain FCB; type: cell-based, Plasmodium falciparum; conditions: Plasmodium falciparum, read-out: IC50 for FCB
Source text: as §1, §2

[5] = system: CQS (HB3, GCO3) and CQR (Dd2, FCB) strains of P. falciparum; assay: SYBR Green I antiplasmodial assay, several CQS and CQR strains; type: cell-based, Plasmodium falciparum
Source text: as §1
Bennett T. N.; Paguio, M.; Gligorijevic, B.; Seudieu, C.; Kosar, A. D.; Davidson, E.; Roepe, P. D. Novel, rapid, and inexpensive cell-based quantification of antimalarial drug efficacy. Antimicrob. Agents Chemother. 2004, 48, 1807-1810; Smilkstein, M.; Sriwilaijaroen, N.; Kelly, J. X.; Wilairat, P.; Riscoe, M. Simple and inexpensive fluorescence-based technique for high-throughput antimalarial drug screening. Antimicrob. Agents Chemother. 2004, 48, 1803-1806; and Johnson, J. D.; Dennull, R. A.; Gerena, L.; Lopez-Sanchez, M.; Roncal, N. E.; Waters, N.C. Assessment and continued validation of the malaria SYBR green I-based fluorescence assay for use in malaria drug screening. Antimicrob. Agents Chemother. 2007, 51, 1926-1933.
Drug activities were assessed and IC50 were quantified essentially as described previously. Delarue, S.; Girault, S.; Maes, L.; Debreu-Fontaine, M. A.; Labaeid, M.; Grellier, P.; Sergheraert, C. Synthesis and in vitro and in vivo antimalarial activity of new 4-anilinoquinolines. J. Med. Chem. 2001, 44, 2827-2833; and O'Neill, P. M.; Willock, D. J.; Hawley, S. R.; Bray, P. G.; Storr, R. C.; Ward, S. A.; Park, B. K. Synthesis, antimalarial activity, and molecular modeling of tebuquine analogues. J. Med. Chem. 1997, 40, 437-448.

Structure (SMILES): CCN(CC)CCCCNc1ccnc2cc(Cl)ccc12 [compound 88, N-(7-Chloro-4-quinolyl)-N′,N′-diethyl-1,4-diaminobutane]
- affinity for monomeric heme (monomeric heme): poor affinity
- affinity (association constant Ka) vs. μ-oxo dimer (μ-oxo dimeric heme): quite similar

- IC50 [1]: 17.5 nM
- IC50 ([2]; CQR strain Dd2, read-out: IC50 against Dd2): 22.7 nM
Structure (SMILES): CCN(CCNc1ccnc2cc(Cl)ccc12)CCNS(=O)(=O)c1cccc2c(N(C)C)cccc12 [compound 23]
- activity against the CQ resistant strain Dd2 in comparison with CQ ([2]; compared with CQ): significantly more potent

- pKa [3]: 4.1
Structure (SMILES): CCN(CC)CCCCSc1ccnc2cc(Cl)ccc12 [compound 98, S-(7-Chloro-4-quinolyl)-4-(N,N-diethylamino)butanethiol]
- affinity for monomeric heme (monomeric heme): poor affinity
- affinity (association constant Ka) vs. μ-oxo dimer (μ-oxo dimeric heme): quite similar
- ability to inhibit Hz formation vs. that measured for CQ and 8 (hemozoin (Hz) formation; FIG. 26): significantly lower

Structure (SMILES): CCN(CC)CCCC(C)Nc1ccnc2cc(Cl)ccc12 (stereo not drawn) [CQ, chloroquine, reference compound]
- IC50 ([2]; Plasmodium falciparum, DD2, read-out: IC50 against Dd2): 140 nM
- IC50 [4]: 170 nM
- affinity for monomeric heme (monomeric heme): poor affinity

Structure (SMILES): CCN(CC)CCCC(CCCN(CC)CC)Oc1ccnc2cc(Cl)ccc12 [compound 102, 7-Chloro-4-(1′,7′-bis(diethylamino)-4′-heptoxy)quinoline]
- activity vs. both CQR and CQS strains relative to 93 ([5]; FIG. 23): improved activity
- fold lower IC50 relative to 98 ([5]; strains Dd2 and FCB): 10 fold
- inhibition of Hz formation relative to monobasic 4O derivative 13 (hemozoin (Hz) formation): more potent inhibitor of Hz formation
